Laboratory results: PMC7031696 (Cell chemical biology, 2019)
pIC50: −log10 of the molar value. Where two headings read alike, the source gives them in different places.

Columns and labels:
[1] = tested on: Plasmodium falciparum 3D7-A10 parasites; assay: Stage specificity assay (8-h exposure of synchronized stages, IC50^8h); format: cell-based; details: for Ratio lowest IC50 8hr/IC50 72hr: 3D7-A10; for pIC50 / IC50: Plasmodium falciparum
[2] = tested on: asynchronous 3D7-A10 parasite cultures; assay: Standard 72-h exposure asexual blood stage susceptibility assay (IC50^72h); format: cell-based, Plasmodium falciparum; details: Plasmodium falciparum, 3D7, 72 h, read-out: Overall (72hr assay) Mean IC50 (IC50^72h)
[3] = tested on: 3D7-MR4 trophozoite parasite-infected RBCs; assay: Metabolomic profiling (hydrophilic metabolite changes, UHPLC-MS); format: cell-based, Plasmodium falciparum
[4] = 3D7, read-out: Early rings IC50 (IC50^8h), 8-h exposure 0–8 hr, bound given in μM
[5] = 3D7, read-out: Early trophozoites Mean IC50 (IC50^8h), 8-h exposure 16–24 hr, 3D7-A10, survival at 60 h
[6] = 3D7, read-out: Late rings IC50 (IC50^8h), 8-h exposure 8–16 hr, bound given in μM
[7] = 3D7, read-out: Late trophozoites Mean IC50 (IC50^8h), 8-h exposure 24–32 hr, 3D7-A10, survival at 60 h

CN(C(=O)c1cn2c(-c3ccc(C(F)(F)F)cc3)cnc2cn1)c1ccc(C#N)cc1 [KAI407, reference compound]
Ratio lowest IC50 8hr/IC50 72hr [1]: 3.9
overall activity profile (stages on which active) ([1]; 8-h exposures): activity against only schizonts
pIC50 ([1]; 3D7, read-out: Early rings Mean IC50, shift 2, 8-h exposure 0–8 hr, line 'shift 2'): 4.79
pIC50 ([1]; 3D7, read-out: Early trophozoites Mean IC50, shift 2, 8-h exposure 16–24 hr, line 'shift 2' of biphasic dose response): 5.29
pIC50 ([1]; 3D7, read-out: Late rings Mean IC50, shift 2, 8-h exposure 8–16 hr, line 'shift 2'): 4.85
pIC50 ([1]; 3D7, read-out: Late trophozoites Mean IC50, shift 1, 8-h exposure 24–32 hr, line 'shift 1' of biphasic dose response): 6.79
pIC50 ([1]; 3D7, read-out: Late trophozoites Mean IC50, shift 2, 8-h exposure 24–32 hr, line 'shift 2' of biphasic dose response): 4.87
pIC50 ([1]; 3D7, read-out: Schizonts Mean IC50, shift 2, 8-h exposure 32–40 hr, line 'shift 2'): 7.34
Stage of peak activity (Figure 6) ([1]; period when the parasite was most susceptible (lowest IC50^8h)): schizonts
pIC50 [2]: 7.93
Log2(fold changes) 3-phosphoglycerate ([3]; metabolite 3-phosphoglycerate, log2 fold change): -0.5235
Log2(fold changes) 4-Pyridoxic acid ([3]; metabolite 4-Pyridoxic acid, log2 fold change): 0.0000
Log2(fold changes) 4-aminobutyrate ([3]; metabolite 4-aminobutyrate, log2 fold change): -0.0697
Log2(fold changes) 4-phosphopantetheine ([3]; metabolite 4-phosphopantetheine, log2 fold change): -0.3259
Log2(fold changes) 4-phosphopantothenate ([3]; metabolite 4-phosphopantothenate, log2 fold change): -0.0998
Log2(fold changes) 5-aminopentanoic acid ([3]; metabolite 5-aminopentanoic acid, log2 fold change): 0.0000
Log2(fold changes) 5-methyl-THF ([3]; metabolite 5-methyl-THF, log2 fold change): 0.0000
Log2(fold changes) 5-phosphoribosyl-1-pyrophosphate ([3]; metabolite 5-phosphoribosyl-1-pyrophosphate, log2 fold change): 0.0000
Log2(fold changes) 6-phospho-D-gluconate ([3]; metabolite 6-phospho-D-gluconate, log2 fold change): -0.0493
Log2(fold change) HVDD ([3]; metabolite HVDD): 0.0000
Log2(fold change) Hydroxyisocaproic acid ([3]; metabolite Hydroxyisocaproic acid): 0.0000
Log2(fold change) IDP ([3]; metabolite IDP): -0.1372
Log2(fold change) IMP ([3]; metabolite IMP): 0.0398
Log2(fold change) Inositol ([3]; metabolite Inositol): 0.0000
Log2(fold change) Isopentyl-PP ([3]; metabolite Isopentyl-PP): 0.0000
Log2(fold change) L-arginino-succinate ([3]; metabolite L-arginino-succinate): 0.0109
Log2(fold change) LD ([3]; metabolite LD): 0.0079
Log2(fold change) Myristoyl/tetradecanoyl-CoA ([3]; metabolite Myristoyl/tetradecanoyl-CoA): 0.0000
Log2(fold change) N-Acetyl-L-alanine ([3]; metabolite N-Acetyl-L-alanine): 0.0065
Log2(fold change) N-acetyl-L-ornithine ([3]; metabolite N-acetyl-L-ornithine): -0.3674
Log2(fold change) N-acetyl-glucosamine-1/6-phosphate ([3]; metabolite N-acetyl-glucosamine-1/6-phosphate): -0.2974
Log2(fold change) N-acetyl-glutamate ([3]; metabolite N-acetyl-glutamate): -0.1156
Log2(fold change) N-acetyl-glutamine ([3]; metabolite N-acetyl-glutamine): -0.4039
Log2(fold change) N-carbamoyl-L-aspartate ([3]; metabolite N-carbamoyl-L-aspartate): -0.0890
Log2(fold change) NAD+ ([3]; metabolite NAD+): -0.0062
Log2(fold change) NADH ([3]; metabolite NADH): 0.3557
Log2(fold change) NADP+ ([3]; metabolite NADP+): 0.1126
Log2(fold change) NADPH ([3]; metabolite NADPH): 0.1591
Log2(fold change) O-acetyl-L-serine ([3]; metabolite O-acetyl-L-serine): 0.0000
Log2(fold change) Octoluse 8/1P ([3]; metabolite Octoluse 8/1P): -0.0134
Log2(fold change) Octoluse Bisphosphate ([3]; metabolite Octoluse Bisphosphate): -0.3290
Log2(fold change) PD ([3]; metabolite PD): -0.6855
Log2(fold change) PE ([3]; metabolite PE): -0.6905
Log2(fold change) PEE ([3]; metabolite PEE): -0.7885
Log2(fold change) PEEK ([3]; metabolite PEEK): -0.8519
Log2(fold change) PVNF ([3]; metabolite PVNF): -0.9231
Log2(fold change) Pyroglutamic acid ([3]; metabolite Pyroglutamic acid): -0.1373
Log2(fold change) Pyrophosphate ([3]; metabolite Pyrophosphate): 0.0000
Log2(fold change) Ribose-5-phosphate ([3]; metabolite Ribose-5-phosphate): -0.3312
Log2(fold change) S-adenosyl-L-homocysteine ([3]; metabolite S-adenosyl-L-homocysteine): -0.0194
Log2(fold change) S-adenosyl-L-methioninamine ([3]; metabolite S-adenosyl-L-methioninamine): 0.0000
Log2(fold change) S-adenosyl-L-methionine ([3]; metabolite S-adenosyl-L-methionine): 0.0000
Log2(fold change) S-methyl-5'-thioadenosine ([3]; metabolite S-methyl-5'-thioadenosine): 0.0000
Log2(fold change) SD ([3]; metabolite SD): -0.4923
Log2(fold change) SDL ([3]; metabolite SDL): 0.0000
Log2(fold change) SID ([3]; metabolite SID): 0.0000
Log2(fold change) Sedoheptulose bisphosphate ([3]; metabolite Sedoheptulose bisphosphate): -0.3584
Log2(fold change) Thiamine pyrophosphate ([3]; metabolite Thiamine pyrophosphate): 0.0000
Log2(fold changes) UDP-D-glucose ([3]; metabolite UDP-D-glucose, log2 fold change): 0.1494
Log2(fold changes) UDP-D-glucuronate ([3]; metabolite UDP-D-glucuronate, log2 fold change): 0.0070
Log2(fold changes) UDP-N-acetyl-glucosamine ([3]; metabolite UDP-N-acetyl-glucosamine, log2 fold change): 0.1156
Log2(fold changes) UDP ([3]; metabolite UDP, log2 fold change): 0.2283
Log2(fold changes) UMP ([3]; metabolite UMP, log2 fold change): 0.2317
Log2(fold changes) UTP ([3]; metabolite UTP, log2 fold change): 0.2213
Log2(fold change) hydroxyphenylpyruvate ([3]; metabolite hydroxyphenylpyruvate): 0.0000
Log2(fold change) hydroxyproline/Aminolevulinate ([3]; metabolite hydroxyproline/Aminolevulinate): -0.0075
Log2(fold change) hypoxanthine ([3]; metabolite hypoxanthine): 0.1648
Log2(fold change) indole ([3]; metabolite indole): 0.3490
Log2(fold change) inosine ([3]; metabolite inosine): -0.0766
Log2(fold change) isoleucine ([3]; metabolite isoleucine): 0.0000
Log2(fold change) lactate ([3]; metabolite lactate): -0.2025
Log2(fold change) leucine ([3]; metabolite leucine): 0.0000
Log2(fold change) lysine ([3]; metabolite lysine): -0.5734
Log2(fold change) malate ([3]; metabolite malate): -0.3950
Log2(fold change) maleic acid ([3]; metabolite maleic acid): -0.3624
Log2(fold change) methionine ([3]; metabolite methionine): 0.0256
Log2(fold change) myo-inositol ([3]; metabolite myo-inositol): -0.1977
Log2(fold change) nicotinamide mononucleotide ([3]; metabolite nicotinamide mononucleotide): 0.0000
Log2(fold change) nicotinate ([3]; metabolite nicotinate): -0.1013
Log2(fold change) ornithine ([3]; metabolite ornithine): -0.1781
Log2(fold change) orotate ([3]; metabolite orotate): 0.2133
Log2(fold change) orotidine-5'-phosphate ([3]; metabolite orotidine-5'-phosphate): 0.1629
Log2(fold change) oxaloacetate ([3]; metabolite oxaloacetate): 0.0000
Log2(fold change) p-aminobenzoate ([3]; metabolite p-aminobenzoate): -0.0216
Log2(fold change) p-hydroxybenzoate ([3]; metabolite p-hydroxybenzoate): 0.3646
Log2(fold change) pantothenate ([3]; metabolite pantothenate): -0.2828
Log2(fold change) phenylalanine ([3]; metabolite phenylalanine): -0.1837
Log2(fold change) phenylpyruvate ([3]; metabolite phenylpyruvate): 0.0000
Log2(fold change) phosphoenolpyruvate ([3]; metabolite phosphoenolpyruvate): -0.3146
Log2(fold change) prephenate ([3]; metabolite prephenate): -0.3616
Log2(fold change) proline ([3]; metabolite proline): -0.1191
Log2(fold change) pyridoxine ([3]; metabolite pyridoxine): -0.0925
Log2(fold change) pyruvate ([3]; metabolite pyruvate): -0.4635
Log2(fold change) riboflavin ([3]; metabolite riboflavin): 0.1454
Log2(fold change) ribose ([3]; metabolite ribose): 0.2742
Log2(fold change) ribose-phosphate ([3]; metabolite ribose-phosphate): 0.0000
Log2(fold change) ribulose-5-phosphate ([3]; metabolite ribulose-5-phosphate): 0.0000
Log2(fold change) serine ([3]; metabolite serine): 0.1757
Log2(fold change) sn-glycerol-3-phosphate ([3]; metabolite sn-glycerol-3-phosphate): -0.3504
Log2(fold change) succinate/Methylmalonic acid ([3]; metabolite succinate/Methylmalonic acid): -0.0586
Log2(fold change) succinyl-CoA/methylmalonyl-CoA ([3]; metabolite succinyl-CoA/methylmalonyl-CoA): 0.0000
Log2(fold change) taurine ([3]; metabolite taurine): 0.0000
Log2(fold change) thiamine ([3]; metabolite thiamine): -0.0019
Log2(fold change) threonine/homoserine ([3]; metabolite threonine/homoserine): -0.0036
Log2(fold change) thymidine ([3]; metabolite thymidine): 0.0000
Log2(fold changes) thymine ([3]; metabolite thymine, log2 fold change): 0.0000
Log2(fold changes) trehalose-6-Phosphate ([3]; metabolite trehalose-6-Phosphate, log2 fold change): 0.0000
Log2(fold changes) tryptophan ([3]; metabolite tryptophan, log2 fold change): -0.0140
Log2(fold changes) tyrosine ([3]; metabolite tyrosine, log2 fold change): 0.0814
Log2(fold changes) uridine ([3]; metabolite uridine, log2 fold change): 0.2403

O=CN(O)CCCP(=O)(O)O [Fosmidomycin, reference compound]
Ratio lowest IC50 8hr/IC50 72hr [1]: 4.9
pIC50 ([1]; 3D7, 8 h, read-out: IC50^8h values at all tested stages, 8-h exposures, all asexual blood stages): < 6.00
IC50 [1, 4]: > 10 µM
pIC50 [1, 5]: 5.70
IC50 [1, 6]: > 10 µM
pIC50 [1, 7]: 5.70
IC50 ([1]; 3D7, read-out: Schizonts IC50 (IC50^8h), 8-h exposure 32–40 hr, bound given in μM): > 10 µM
Peak Activity (Table S1) ([1]; stage(s) with the lowest IC50^8h): Trophs
pIC50 [2]: 6.39

CCOC(=O)C1=C(C)N=c2s/c(=C\c3cc(Cl)ccc3O)c(=O)n2C1c1ccc(OC)cc1 (stereo not shown) [MMV665971]
Ratio lowest IC50 8hr/IC50 72hr [1]: 2.6
killing in stage specificity assay ([1]; 8-h exposures, survival curves): incomplete killing at all asexual blood stages
IC50 [1, 4]: > 25 µM
pIC50 [1, 5]: 6.30
IC50 [1, 6]: > 25 µM
pIC50 [1, 7]: 6.31
pIC50 ([1]; 3D7, read-out: Schizonts Mean IC50 (IC50^8h), 8-h exposure 32–40 hr, 3D7-A10, survival at 60 h): 6.28
pIC50 [2]: 6.73
